Experimental data taken from ChEMBL document CHEMBL3217615, “Novel 3,5-bis(arylidiene)-4-piperidone based monocarbonyl analogs of curcumin: anticancer activity evaluation and mode of action study” (2014).

What was measured:
Assay type in all cases: functional
[1] = tested on: COLO 205; test: Induction of apoptosis in human COLO205 cells assessed as viable cells level at 10 uM after 24 hrs by Annexin V/propidium iodide staining-based fluorescence microscopy
[2] = tested on: MDA-MB-468; test: Growth inhibition of human MDA-MB-468 cells after 48 hrs by sulforhodamine B assay; details: MDA-MB-468, 48 h; for CC50: read-out: LC50 (the source's name)
[3] = tested on: SK-MEL-5; test: Growth inhibition of human SK-MEL-5 cells assessed as cell growth at 10^-6 M after 48 hrs by sulforhodamine B assay; details: SK-MEL-5, 48 h, read-out: Activity
[4] = tested on: MDA-MB-435; test: Growth inhibition of human MDA-MB-435 cells assessed as cell growth at 10^-6 M after 48 hrs by sulforhodamine B assay; details: MDA-MB-435, 48 h, read-out: Activity
[5] = Growth inhibition of human SF539 cells assessed as cell growth at 10^-6 M after 48 hrs by sulforhodamine B assay; details: SF-539, 48 h, read-out: Activity
[6] = tested on: HCT-116; test: Growth inhibition of human HCT116 cells assessed as cell growth at 10^-6 M after 48 hrs by sulforhodamine B assay; details: HCT-116, 48 h, read-out: Activity
[7] = tested on: NCI-H522; test: Growth inhibition of human NCI-H522 cells assessed as cell growth at 10^-6 M after 48 hrs by sulforhodamine B assay; details: NCI-H522, 48 h, read-out: Activity
[8] = tested on: NCI-H226; test: Growth inhibition of human NCI-H226 cells assessed as cell growth at 10^-6 M after 48 hrs by sulforhodamine B assay; details: NCI-H226, 48 h, read-out: Activity
[9] = tested on: RPMI-8226; test: Growth inhibition of human RPMI8226 cells assessed as cell growth at 10^-6 M after 48 hrs by sulforhodamine B assay; details: RPMI-8226, 48 h, read-out: Activity
[10] = tested on: MDA-MB-231; test: Growth inhibition of human MDA-MB-231 cells assessed as cell growth at 10^-7 M after 48 hrs by sulforhodamine B assay; details: MDA-MB-231, 48 h, read-out: Activity
[11] = tested on: SK-OV-3; test: Growth inhibition of human SKOV3 cells assessed as cell growth at 10^-7 M after 48 hrs by sulforhodamine B assay; details: SK-OV-3, 48 h, read-out: Activity
[12] = tested on: SN12C; test: Growth inhibition of human SN12C cells assessed as cell growth at 10^-6 M after 48 hrs by sulforhodamine B assay; details: read-out: Activity
[13] = Growth inhibition of human NCI-ADR-RES cells assessed as cell growth at 10^-6 M after 48 hrs by sulforhodamine B assay; details: read-out: Activity
[14] = Growth inhibition of human NCI-ADR-RES cells assessed as cell growth at 10^-4 M after 48 hrs by sulforhodamine B assay; details: read-out: Activity
[15] = Growth inhibition of human OVCAR5 cells assessed as cell growth at 10^-4 M after 48 hrs by sulforhodamine B assay; details: OVCAR-5, 48 h, read-out: Activity
[16] = tested on: NCI-H226; test: Growth inhibition of human NCI-H226 cells assessed as cell growth at 10^-4 M after 48 hrs by sulforhodamine B assay; details: NCI-H226, 48 h, read-out: Activity
[17] = tested on: CCRF-CEM; test: Growth inhibition of human CCRF-CEM cells assessed as cell growth at 10^-4 M after 48 hrs by sulforhodamine B assay; details: read-out: Activity
[18] = tested on: SK-MEL-28; test: Growth inhibition of human SK-MEL-28 cells assessed as cell growth at 10^-8 M after 48 hrs by sulforhodamine B assay; details: SK-MEL-28, 48 h; for growth at 0.01 µM: read-out: Activity; for CC50: read-out: pLC50 (the source's name) (converted); for TGI: read-out: pTGI (converted)
[19] = Growth inhibition of human LOXIMVI cells assessed as cell growth at 10^-8 M after 48 hrs by sulforhodamine B assay; details: LOX IMVI; for growth at 0.01 µM: read-out: Activity; for TGI: read-out: pTGI (converted)
[20] = tested on: SR; test: Growth inhibition of human SR cells assessed as cell growth at 10^-8 M after 48 hrs by sulforhodamine B assay; details: for growth at 0.01 µM: read-out: Activity; for TGI: read-out: pTGI (converted)
[21] = tested on: CCRF-CEM; test: Growth inhibition of human CCRF-CEM cells assessed as cell growth at 10^-8 M after 48 hrs by sulforhodamine B assay; details: for growth at 0.01 µM: read-out: Activity; for CC50: read-out: pLC50 (the source's name) (converted); for TGI: read-out: pTGI (converted)
[22] = Growth inhibition of human OVCAR3 cells after 48 hrs by sulforhodamine B assay; details: OVCAR-3, 48 h; for CC50: read-out: LC50 (the source's name)
[23] = tested on: Malme-3M; test: Growth inhibition of human MALME-3M cells after 48 hrs by sulforhodamine B assay; details: for CC50: read-out: LC50 (the source's name)
[24] = Growth inhibition of human SF539 cells after 48 hrs by sulforhodamine B assay; details: SF-539, 48 h; for CC50: read-out: LC50 (the source's name)
[25] = Growth inhibition of human HCT15 cells after 48 hrs by sulforhodamine B assay; details: HCT-15, 48 h; for CC50: read-out: LC50 (the source's name)
[26] = tested on: A549; test: Growth inhibition of human A549/ATCC cells after 48 hrs by sulforhodamine B assay; details: A549, 48 h; for CC50: read-out: LC50 (the source's name)
[27] = tested on: RPMI-8226; test: Growth inhibition of human RPMI8226 cells after 48 hrs by sulforhodamine B assay; details: RPMI-8226, 48 h
[28] = Growth inhibition of human BT549 cells assessed as cell growth at 10^-4 M after 48 hrs by sulforhodamine B assay; details: BT-549, 48 h, read-out: Activity
[29] = tested on: Malme-3M; test: Growth inhibition of human MALME-3M cells assessed as cell growth at 10^-7 M after 48 hrs by sulforhodamine B assay; details: read-out: Activity
[30] = Growth inhibition of human SF539 cells assessed as cell growth at 10^-7 M after 48 hrs by sulforhodamine B assay; details: SF-539, 48 h, read-out: Activity
[31] = tested on: SW-620; test: Growth inhibition of human SW620 cells assessed as cell growth at 10^-7 M after 48 hrs by sulforhodamine B assay; details: SW-620, 48 h, read-out: Activity
[32] = tested on: RPMI-8226; test: Growth inhibition of human RPMI8226 cells assessed as cell growth at 10^-7 M after 48 hrs by sulforhodamine B assay; details: RPMI-8226, 48 h, read-out: Activity
[33] = tested on: T47D; test: Growth inhibition of human T47D cells assessed as cell growth at 10^-8 M after 48 hrs by sulforhodamine B assay; details: for growth at 0.01 µM: read-out: Activity; for CC50: read-out: pLC50 (the source's name) (converted); for TGI: read-out: pTGI (converted)
[34] = tested on: DU-145; test: Growth inhibition of human DU145 cells assessed as cell growth at 10^-8 M after 48 hrs by sulforhodamine B assay; details: DU-145, 48 h; for growth at 0.01 µM: read-out: Activity; for TGI: read-out: pTGI (converted)

SMILES: O=C1/C(=C/c2ccc(Cl)cc2Cl)CN(S(=O)(=O)c2ccccc2)C/C1=C\c1ccc(Cl)cc1Cl
- Activity [1]: 29%
- GI50 [2]: 1130 nM
- TGI [2]: 3890 nM
- CC50 [2]: > 100000 nM
- growth at 1 µM [3]: 94%
- growth at 1 µM [4]: 50%
- growth at 1 µM [5]: 22%
- growth at 1 µM [6]: -56%
- growth at 1 µM [7]: 47%
- growth at 1 µM [8]: 52%
- growth at 1 µM [9]: -25%
- growth at 0.1 µM [10]: 99%
- growth at 0.1 µM [11]: 102%
- growth at 1 µM [12]: -15%
- growth at 1 µM [13]: 54%
- growth at 100 µM [14]: 21%
- growth at 100 µM [15]: -2%
- growth at 100 µM [16]: -55%
- growth at 100 µM [17]: -19%
- GI50 [18]: 4470 nM
- growth at 0.01 µM [18]: 97%
- CC50 [18]: > 100000 nM
- TGI [18]: > 100000 nM
- GI50 [19]: 204 nM
- growth at 0.01 µM [19]: 95%
- TGI [19]: 513 nM
- GI50 [20]: 186 nM
- LC50 [20]: > 100000 nM
- growth at 0.01 µM [20]: 93%
- TGI [20]: 871 nM
- GI50 [21]: 288 nM
- growth at 0.01 µM [21]: 98%
- CC50 [21]: > 100000 nM
- TGI [21]: 1000 nM
- GI50 [22]: 310 nM
- TGI [22]: 818 nM
- CC50 [22]: 5010 nM
- GI50 [23]: 3210 nM
- CC50 [23]: > 100000 nM
- GI50 [24]: 424 nM
- TGI [24]: 2070 nM
- CC50 [24]: > 100000 nM
- GI50 [25]: 247 nM
- TGI [25]: 759 nM
- CC50 [25]: > 100000 nM
- GI50 [26]: 277 nM
- TGI [26]: 887 nM
- CC50 [26]: > 100000 nM
- GI50 [27]: 225 nM
- LC50 [27]: > 100000 nM
- TGI [27]: 605 nM
- growth at 100 µM [28]: -42%
- growth at 0.1 µM [29]: 129%
- growth at 0.1 µM [30]: 97%
- growth at 0.1 µM [31]: 96%
- growth at 0.1 µM [32]: 91%
- GI50 [33]: 1260 nM
- growth at 0.01 µM [33]: 99%
- CC50 [33]: > 100000 nM
- TGI [33]: 100000 nM
- GI50 [34]: 447 nM
- LC50 [34]: > 100000 nM
- growth at 0.01 µM [34]: 106%
- TGI [34]: 18600 nM

SMILES: Cc1ccc(S(=O)(=O)N2C/C(=C\c3cc(F)cc(F)c3)C(=O)/C(=C/c3cc(F)cc(F)c3)C2)cc1
- Activity [1]: 24%
- GI50 [2]: 349 nM
- TGI [2]: 1710 nM
- CC50 [2]: 5770 nM
- growth at 1 µM [3]: 3%
- growth at 1 µM [4]: -18%
- growth at 1 µM [5]: 61%
- growth at 1 µM [6]: -32%
- growth at 1 µM [7]: -2%
- growth at 1 µM [8]: 90%
- growth at 1 µM [9]: -16%
- growth at 0.1 µM [10]: 97%
- growth at 0.1 µM [11]: 106%
- growth at 1 µM [12]: 11%
- growth at 1 µM [13]: 19%
- growth at 100 µM [14]: -57%
- growth at 100 µM [15]: -90%
- growth at 100 µM [16]: -32%
- growth at 100 µM [17]: -29%
- GI50 [18]: 468 nM
- growth at 0.01 µM [18]: 100%
- CC50 [18]: 4790 nM
- TGI [18]: 1780 nM
- GI50 [19]: 174 nM
- growth at 0.01 µM [19]: 97%
- CC50 ([19]; read-out: pLC50 (the source's name) (converted)): 661 nM
- TGI [19]: 339 nM
- GI50 [20]: 34.7 nM
- LC50 [20]: > 100000 nM
- growth at 0.01 µM [20]: 93%
- TGI [20]: 251 nM
- GI50 [21]: 74.1 nM
- growth at 0.01 µM [21]: 95%
- CC50 [21]: > 100000 nM
- TGI [21]: 955 nM
- GI50 [22]: 441 nM
- TGI [22]: 1440 nM
- CC50 [22]: 4560 nM
- GI50 [23]: 274 nM
- TGI [23]: 742 nM
- CC50 [23]: 3810 nM
- GI50 [24]: 1210 nM
- TGI [24]: 2870 nM
- CC50 [24]: 6810 nM
- GI50 [25]: 250 nM
- TGI [25]: 1300 nM
- CC50 [25]: 30700 nM
- GI50 [26]: 2860 nM
- TGI [26]: 14600 nM
- CC50 [26]: > 100000 nM
- GI50 [27]: 37.2 nM
- LC50 [27]: 93800 nM
- TGI [27]: 331 nM
- growth at 100 µM [28]: -95%
- growth at 0.1 µM [29]: 101%
- growth at 0.1 µM [30]: 93%
- growth at 0.1 µM [31]: 42%
- growth at 0.1 µM [32]: 17%
- GI50 [33]: 1780 nM
- growth at 0.01 µM [33]: 96%
- CC50 [33]: 53700 nM
- TGI [33]: 6030 nM
- GI50 [34]: 1230 nM
- LC50 [34]: 7590 nM
- growth at 0.01 µM [34]: 106%
- TGI [34]: 3090 nM
